Each structure is given as a SMILES string. Read-outs that look alike come from different tables or passages of the source.

The values below come from article PMC12372887, “Mechanism and cellular actions of the potent AMPK inhibitor BAY-3827” (Science Advances, 2025).

One assay has as its system HEK293 cells. The assay is described as follows: RSK signaling immunoblot in HEK293 cells. Format: cell-based, human. As for the experimental part: HEK293 cells (Invitrogen, R75007) were seeded at a density of 500,000 cells per well in six-well cell culture plates (Corning Incorporated Costar #3516) in Dulbecco’s modified Eagle medium (DMEM) high-glucose + GlutaMAX Supplement, pyruvate (Thermo Fisher Scientific, catalog no. 31966-021) containing penicillin G (100 U/ml), streptomycin (100 μg/ml), and 10% (v/v) FBS. Once attached, the next day, the media were changed to serum-free and the cells were starved for 16 hours followed by compound treatment with BAY-3827, BI-D1870 (MedChemExpress, #HY-10510) ± 10 μM MK-2206 dihydrochloride (MedChemExpress, #HY-10358) with 30 min incubation at 37°C followed by coincubation with […] (MedChemExpress, #HY-18739) or vehicle for additional 30 min with final assay DMSO concentration of 0.13%. All cell lines used here were tested monthly for mycoplasma and tested negative.
Following compound treatment, the cells were washed with room temperature PBS and lysed on ice with the addition of lysis buffer [50 mM tris-HCl (pH 7.5), 150 mM NaCl, 1 mM EDTA, 1 mM EGTA, 0.27 M sucrose, 1% w/v Triton X-100, 20 mM glycerol-2 phosphate disodium, 50 mM NaF, and 5 mM Na4P2O7.10 H2O] containing proteases and phosphatase inhibitors [0.5 mM phenylmethylsulfonyl fluoride (PMSF), 1 mM benzamidine HCl, leupeptin (1 μg/ml), pepstatin A (1 μg/ml), 1 μM microcystin-LR, 1 mM Na3VO4, and 1 mM DTT]. Lysates were centrifuged at 10,000g, 4°C for 10 min, and protein concentration of the supernatant was determined with the Pierce Bradford Protein Assay Kit (Thermo Fisher Scientific, #23200) and read on the Hidex Plate Reader (software version 0.5.64.0). Samples were prepared in Laemmli sample buffer (tris 200 mM, 8% SDS, EDTA 2 mM, and 40% glycerol) supplemented with 10% DTT and boiled for 5 min at 100°C. Ten micrograms of protein per sample was run on a Criterion tris-glycine polyacrylamide gel (Bio-Rad, #5678095) and transferred to a nitrocellulose membrane. For cell signaling experiments in HEK293 cells, the samples were run on a Criterion TGX stain-free precast gel (Bio-Rad, catalog no. 5678085) with transfer to a polyvinylidene difluoride membrane performed in Bio-Rad Criterion blotter (#1704071) using tris-glycine transfer buffer (Bio-Rad, #1610734) following the manufacturer’s instructions. The membranes were probed at 4°C overnight in a 4% BSA TBS-T solution containing 0.02% sodium azide with the following antibodies where appropriate: Phospho-ACC (Ser^79) (1:1000, Cell Signaling Technology, #3661S), ACC (C83B10) (1:1000, Cell Signaling Technology, #3676S), phospho-Raptor (Ser^792) (1:1000, Cell Signaling Technology, #2083S), Raptor (24C12) (1:1000, Cell Signaling Technology, #2280S), GSK3αβ (1:2000, Sigma-Aldrich, #04-903), phospho-GSK3αβ (Ser^21/9) (D17D2) (1:1000, Cell Signaling Technology, #8566S), ERK1/2 (137F5) (1:1000, Cell Signaling Technology, #4695), phospho-ERK1/2 (Thr^202/Tyr^204) (D13.14.4E) (1:1000, Cell Signaling Technology, #4370), phospho-AMPKα (Thr^172) (40H9) (1:1000, Cell Signaling Technology, #2535S), AMPKα (1:1000, Cell Signaling Technology, #2532S), anti–glyceraldehyde-3-phosphate dehydrogenase antibody (1:5000, Cell Signaling Technology, #G8795), and vinculin (1:1000, Cell Signaling Technology, #13901). Membranes were scanned using the Odyssey Fc LiCor system (exposure time, 30 s) with densitometry analysis performed using LiCor Image Studio Lite normalizing to control loading protein. Figures were made using GraphPad Prism v10.
A general note: A western blot detects proteins with antibodies after separation by electrophoresis.

The next assay relates to AMPK. More on the design: method as in PMID 33492659. Conditions: 2 μM AMP, cited from earlier work.

Consider `CCc1ccccc1C(=O)Nc1n[nH]c2c(C)c(F)c(C3C(C#N)=C(C)N(C)C(C)=C3C#N)cc12` [BAY-3827, N-[5-(3,5-dicyano-1,2,6-trimethyl-4H-pyridin-4-yl)-6-fluoro-7-methyl-1H-indazol-3-yl]-2-ethylbenzamide], for which the “PMA-stimulated pGSK3αβ (surrogate of RSK activity)” value in the assay on HEK293 cells (10 μM, in the presence of MK-2206 (10 μM)) was “inhibited to the same extent”. In addition, in the assay on HEK293 cells (serum-starved HEK293, 1 and 10 μM), the ACC1 phosphorylation entry is reported as “dose-dependent reduction”. In addition, the IC50 (as a rule, the concentration needed to halve the response being measured) with AMPK (high (2 mM) ATP) is 15 nM; in the assay with AMPK (low (10 μM) ATP), 1.4 nM.
